In patent US20250222120A1, “SYNTHESIS OF NOVEL SMALL MOLECULE CARM1 DEGRADERS, COMPOUNDS FORMED THEREBY, AND PHARMACEUTICAL COMPOSITIONS CONTAINING THEM” (Wisconsin Alumni Research Foundation, priority 2024, published 2025):
Peptide text beside a SMILES is read from it. * marks the point of attachment. Cbz = O=C(OCc1ccccc1)*

Tests used:
[1] = biological target: T1, CARM1 (Homo sapiens, UniProt Q86X55); assay: CARM1 degradation by western blot in MCF7 cells; format: cell-based; design: Cell lysates were collected and the CARM1 levels were detected by western blots; endogenous in cells; host or cells: MCF7; conditions: MCF7 cells, 0.5 μM 3b, 24 h; 7.5 μM MG132, 20 μM VH-032, 2 μM MLN4924, 10 μM TP-064
T1 sequence (Q86X55 1-608): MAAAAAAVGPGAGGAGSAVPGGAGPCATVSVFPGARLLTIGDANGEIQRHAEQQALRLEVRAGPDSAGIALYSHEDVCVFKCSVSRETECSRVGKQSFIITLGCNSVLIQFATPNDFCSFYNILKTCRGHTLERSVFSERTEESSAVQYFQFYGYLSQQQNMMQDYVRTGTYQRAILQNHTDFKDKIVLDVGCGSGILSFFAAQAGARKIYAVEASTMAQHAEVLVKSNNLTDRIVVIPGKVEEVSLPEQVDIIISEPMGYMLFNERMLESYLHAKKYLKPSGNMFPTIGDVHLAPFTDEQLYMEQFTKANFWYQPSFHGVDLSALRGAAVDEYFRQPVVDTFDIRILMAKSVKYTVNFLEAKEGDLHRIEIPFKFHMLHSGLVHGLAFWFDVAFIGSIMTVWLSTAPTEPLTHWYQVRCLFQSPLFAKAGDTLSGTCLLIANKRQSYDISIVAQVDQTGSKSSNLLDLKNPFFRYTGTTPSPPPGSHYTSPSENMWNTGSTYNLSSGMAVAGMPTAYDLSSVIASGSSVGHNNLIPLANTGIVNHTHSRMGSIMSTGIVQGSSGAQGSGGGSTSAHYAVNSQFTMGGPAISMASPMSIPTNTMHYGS

[2] = biological target: T1, CARM1; assay: CARM1 degradation by western blot in MCF7 cells; format: cell-based; design: Cell lysates were collected and the CARM1 levels were detected by western blots; endogenous in cells; host or cells: MCF7; conditions: 24 h; for CARM1 degradation activity, alkyl-linker degraders: 0.5 and 1.0 μM; for CARM1 degradation activity: 0.5 μM
Protocol: Based on the structure of TPVC3, CARM1 degraders with stable and flexible alkyl linkages 2a-e were designed and synthesized. Degrader 2b bears the same linker length as TPVC3, while 2a has one less carbon. However, we also changed the hydrolytic labile C═N double bond, which is part of the acylhydrazone motif, in TPVC3 to a C—C bond in compound 2b. This change may influence the required optimal linker length. […] Western blot assays were performed to evaluate the CARM1 degradation activity of the compounds after treating MCF7 cells with these degraders at two concentrations (0.5 and 1.0 μM) for 24 h. […] It has one less carbon atom than 2a in terms of length. […] It has the same linker length as 2d.
The treatment dose and time were determined based on time-course and dose titration experiments (FIG. 4B-4C).
Western Blot Assay. Cells were harvested and washed with Dulbecco's phosphate-buffered saline (PBS), then lysed with 1×RIPA lysis buffer (50 mM Tris pH 7.5, 150 mM NaCl, 1% NP-40, 0.5% sodium deoxycholate, and 0.1% sodium dodecyl sulfate) supplemented with 1 mM phenylmethylsulfonyl fluoride, 10 μg/mL aprotinin, 1 μM leupeptin, and 10 μg/mL pepstatin on ice for 20 min. The supernatant was collected after spinning down at 15000 RPM at 4 degrees Celsius for 10 min. The concentration of whole lysates was quantified using a Bradford assay. 50-75 μg of cell lysates was boiled in 4× Laemmli Loading Dye and boiled at 100 degrees Celsius for 10 min. 25 μg were run in 8% SDS-PAGE gels and transferred to nitrocellulose membranes. Blots were blocked in 5% skim milk in PBST [PBS and 0.1% Tween 20] for 45 min, then incubated with primary antibodies at 4 degrees Celsius overnight. Blots were washed in PBST for 30 min, then incubated with horseradish peroxidase-linked secondary antibodies (Jackson ImmunoResearch) for 1 hr. Afterwards, blots were washed in PBST for 15-30 min, then treated with chemiluminescent ECL reagent and imaged with the ChemiDoc Imaging System (Bio-Rad) or Azure 600 (Azure Biosystems). Expression levels of the indicated proteins were probed by the following antibodies: anti-CARM1, anti-me-BAF155, anti-me-PABP1, anti-PABP1,^7 anti-BAF155 (D7F8S, Cell Signaling Technology), anti-PRMT1 (Bethyl), anti-PRMT6 (D-5, Santa Cruz Biotechnology), anti-β-Actin (ABclonal Technology, Sigma-Aldrich), anti-Hsp90 (H-114, Santa Cruz Biotechnology).

NS(=O)(=O)OC[C@@H]1C[C@@H](n2ccc3c(N[C@H]4CCc5ccccc54)ncnc32)C[C@@H]1O [MLN492437, reference compound]
Effect of competitor/inhibitor on 3b-induced CARM1 degradation [1]: abrogated 3b-induced CARM1 degradation

CNCCN1CCC(c2cc(CN(C)C(=O)c3cccc(Oc4ccc(OCC(=O)NCc5ccc(OCCCC(=O)N[C@H](C(=O)N6C[C@H](O)C[C@H]6C(=O)N[C@@H](C)c6ccc(-c7scnc7C)cc6)C(C)(C)C)cc5)cc4)c3)ccn2)CC1 [Compound 2a, (2S,4R)-1-((S)-3,3-dimethyl-2-(4-(4-((2-(4-(3-(methyl((2-(1-(2-(methylamino)ethyl)piperidin-4-yl)pyridin-4-yl)methyl)carbamoyl)phenoxy)phenoxy)acetamido)methyl)phenoxy)butanamido)butanoyl)-4-hydroxy-N—((S)-1-(4-(4-methylthiazol-5-yl)phenyl)ethyl)pyrrolidine-2-carboxamide]
CARM1 degradation activity, alkyl-linker degraders [2]: 2d and 2e showed stronger CARM1 degradation activities than 2a, 2b, and 2c

CNCCN1CCC(c2cc(CN(C)C(=O)c3cccc(Oc4ccc(C(=O)N5CCC(CN6CCC(CN7CCN(CC(=O)N[C@H](C(=O)N8C[C@H](O)C[C@H]8C(=O)N[C@@H](C)c8ccc(-c9scnc9C)cc8)C(C)(C)C)CC7)CC6)CC5)cc4)c3)ccn2)CC1 [Compound 3c, (2S,4R)-1-((S)-3,3-dimethyl-2-(2-(4-((1-((1-(4-(3-(methyl((2-(1-(2-(methylamino)ethyl)piperidin-4-yl)pyridin-4-yl)methyl)carbamoyl)phenoxy)benzoyl)piperidin-4-yl)methyl)piperidin-4-yl)methyl)piperazin-1-yl)acetamido)butanoyl)-4-hydroxy-N—((S)-1-(4-(4-methylthiazol-5-yl)phenyl)ethyl)pyrrolidine-2-carboxamide]
CARM1 degradation activity [2]: significantly lower CARM1 degradation activities

CNCCN1CCC(c2cc(CN(C)C(=O)c3cccc(Oc4ccc(OCC(=O)NCCc5ccc(OCCCCCC(=O)N[C@H](C(=O)N6C[C@H](O)C[C@H]6C(=O)N[C@@H](C)c6ccc(-c7scnc7C)cc6)C(C)(C)C)cc5)cc4)c3)ccn2)CC1 [Compound 2d, (2S,4R)-1-((S)-3,3-dimethyl-2-(6-(4-(2-(2-(4-(3-(methyl((2-(1-(2-(methylamino)ethyl)piperidin-4-yl)pyridin-4-yl)methyl)carbamoyl)phenoxy)phenoxy)acetamido)ethyl)phenoxy)hexanamido)butanoyl)-4-hydroxy-N—((S)-1-(4-(4-methylthiazol-5-yl)phenyl)ethyl)pyrrolidine-2-carboxamide]
CARM1 degradation activity, alkyl-linker degraders [2]: stronger CARM1 degradation activities

CNCCN1CCC(c2cc(CN(C)C(=O)c3cccc(Oc4ccc(OCC(=O)NCCc5ccc(OCCCCCCC(=O)N[C@H](C(=O)N6C[C@H](O)C[C@H]6C(=O)N[C@@H](C)c6ccc(-c7scnc7C)cc6)C(C)(C)C)cc5)cc4)c3)ccn2)CC1 [Compound 2e, (2S,4R)-1-((S)-3,3-dimethyl-2-(7-(4-(2-(2-(4-(3-(methyl((2-(1-(2-(methylamino)ethyl)piperidin-4-yl)pyridin-4-yl)methyl)carbamoyl)phenoxy)phenoxy)acetamido)ethyl)phenoxy)heptanamido)butanoyl)-4-hydroxy-N—((S)-1-(4-(4-methylthiazol-5-yl)phenyl)ethyl)pyrrolidine-2-carboxamide]
CARM1 degradation activity, alkyl-linker degraders [2]: stronger CARM1 degradation activities

CNCCN1CCC(c2cc(CN(C)C(=O)c3cccc(Oc4ccc(OCC(=O)NCCc5ccc(OCCCCC(=O)N[C@H](C(=O)N6C[C@H](O)C[C@H]6C(=O)N[C@@H](C)c6ccc(-c7scnc7C)cc6)C(C)(C)C)cc5)cc4)c3)ccn2)CC1 [Compound 2c, (2S,4R)-1-((S)-3,3-dimethyl-2-(5-(4-(2-(2-(4-(3-(methyl((2-(1-(2-(methylamino)ethyl)piperidin-4-yl)pyridin-4-yl)methyl)carbamoyl)phenoxy)phenoxy)acetamido)ethyl)phenoxy)pentanamido)butanoyl)-4-hydroxy-N—((S)-1-(4-(4-methylthiazol-5-yl)phenyl)ethyl)pyrrolidine-2-carboxamide]
CARM1 degradation activity, alkyl-linker degraders [2]: 2d and 2e showed stronger CARM1 degradation activities than 2a, 2b, and 2c

CC(=O)N[C@H](C(=O)N1C[C@H](O)C[C@H]1C(=O)NCc1ccc(-c2scnc2C)cc1)C(C)(C)C [VH-032, reference compound]
Effect of competitor/inhibitor on 3b-induced CARM1 degradation [1]: abrogated 3b-induced CARM1 degradation

CNCCN1CCC(c2cc(CN(C)C(=O)c3cccc(Oc4ccc(CC(=O)N5CCC(CN6CCC(CN7CCN(CC(=O)N[C@H](C(=O)N8C[C@H](O)C[C@H]8C(=O)N[C@@H](C)c8ccc(-c9scnc9C)cc8)C(C)(C)C)CC7)CC6)CC5)cc4)c3)ccn2)CC1 [Compound 3d, (2S,4R)-1-((S)-3,3-dimethyl-2-(2-(4-((1-((1-(2-(4-(3-(methyl((2-(1-(2-(methylamino)ethyl)piperidin-4-yl)pyridin-4-yl)methyl)carbamoyl)phenoxy)phenyl)acetyl)piperidin-4-yl)methyl)piperidin-4-yl)methyl)piperazin-1-yl)acetamido)butanoyl)-4-hydroxy-N—((S)-1-(4-(4-methylthiazol-5-yl)phenyl)ethyl)pyrrolidine-2-carboxamide]
CARM1 degradation activity [2]: significantly lower CARM1 degradation activities

CC(C)C[C@@H](C=O)NC(=O)[C@H](CC(C)C)NC(=O)[C@H](CC(C)C)NC(=O)OCc1ccccc1 [MG132, reference compound] (Cbz-Leu-Leu-Leu-aldehyde)
Effect of competitor/inhibitor on 3b-induced CARM1 degradation [1]: abrogated 3b-induced CARM1 degradation

CNCCN1CCC(c2cc(CN(C)C(=O)c3cccc(Oc4ccc(OCC(=O)NCCc5ccc(OCCCC(=O)N[C@H](C(=O)N6C[C@H](O)C[C@H]6C(=O)N[C@@H](C)c6ccc(-c7scnc7C)cc6)C(C)(C)C)cc5)cc4)c3)ccn2)CC1 [Compound 2b, (2S,4R)-1-((S)-3,3-dimethyl-2-(4-(4-(2-(2-(4-(3-(methyl((2-(1-(2-(methylamino)ethyl)piperidin-4-yl)pyridin-4-yl)methyl)carbamoyl)phenoxy)phenoxy)acetamido)ethyl)phenoxy)butanamido)butanoyl)-4-hydroxy-N—((S)-1-(4-(4-methylthiazol-5-yl)phenyl)ethyl)pyrrolidine-2-carboxamide]
CARM1 degradation activity, alkyl-linker degraders [2]: 2d and 2e showed stronger CARM1 degradation activities than 2a, 2b, and 2c
